Assay results: patent US9421204B2, “Oligomer modified diaromatic substituted compounds” (priority 2010, dated 2016)
Where two headings read alike, the source gives them in different places.

Columns and labels:
CEM-SS cells [1] = assay: Toxicity XTT in CEM-SS cells (cytoprotection assay); assay type: cell-based; details: XTT; read-out: CEM-SS TC50
Outline: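 CEM-SS cells in exponential growth (>95% viable) were plated with compound alone, as eleven half-log dilutions in triplicate, at 37 °C and 5% CO2. Viability was measured by XTT/PMS metabolism over 4 h, read at 450/650 nm. Toxicity was derived by four-parameter curve fitting.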

NL4-3 = assay: Anti-HIV cytoprotection assay, wild type NL4-3; assay type: cell-based, HIV-1; details: for TI: HIV-1 strain NL4-3
Description: (§1) Cells were prepared as described above. Virus Preparation—The wild type NL4-3 and drug resistant A17 viruses were obtained from the NIH AIDS Research and Reference Reagent Program and stock virus pools were produced in CEM-SS cells. Amino acid substitutes of L100I, Y181C and P23L were introduced by site-directed mutagenesis into pN L4-3 and stock virus pools were produced in CEM-SS cells. A pretitered aliquot of virus was removed from the freezer (−80° C.) and allowed to thaw slowly to room temperature in a biological safety cabinet.
(§2) Plate Format—Each plate contains cell control wells (cells only), virus control wells (cells plus virus), drug toxicity wells (cells plus drug only), drug colorimetric control wells (drug only) as well as experimental wells (drug plus cells plus virus). Samples were tested in triplicate with eleven half-log dilutions per compound. Efficacy and Toxicity XTT—Following incubation at 37° C. in a 5% CO2 incubator, the test plates were stained with the tetrazolium dye XTT (2,3-bis(2-methoxy-4-nitro-5-sulfophenyl)-5-[(phenylamino)carbonyl]-2H-tetrazolium hydroxide). XTT-tetrazolium was metabolized by the mitochondrial enzymes of metabolically active cells to a soluble formazan product, allowing rapid quantitative analysis of the inhibition of HIV induced cell killing by anti-HIV test substances. XTT solution was prepared daily as a stock of 1 mg/mL in RPMI1640. Phenazine methosulfate (PMS) solution was prepared at 0.15 mg/mL in PBS and stored in the dark at −20° C. XTTIPMS stock was prepared immediately before use by adding 40 μL of PMS per ml of XTT solution. Fifty microliters of XTT/PMS was added to each well of the plate and the plate was re-incubated for 4 hours at 37° C. Plates were sealed with adhesive plate sealers and shaken gently or inverted several times to mix the soluble formazan product and the plate was read spectrophotometrically at 450/650 nm with a Molecular Devices Vmax plate reader.
(§3) Data Analysis—Raw data was collected from the Softmax Pro 4.6 software and imported into a Excel XLFit4 spreadsheet for analysis by four parameter curve fit calculations. Both antiviral activity and toxicity are calculated.

NL4-3L100I = assay: Anti-HIV cytoprotection assay, drug resistant NL4-3 L100I; assay type: cell-based; details: HIV-1 strain NL4-3L100I; for EC50: CEM-SS cells
Description: as §1, with “cabinet. Virus was re-suspended and diluted into tissue culture medium such that the amount of virus added to each well in a volume of 50 μL was the amount determined to yield 85 to 95% cell killing at 6 days post-infection.” for “cabinet.”
as §2, §3

NL4-3Y181C = assay: Anti-HIV cytoprotection assay, drug resistant NL4-3 Y181C; assay type: cell-based; details: HIV-1 strain NL4-3Y181C; for EC50: CEM-SS cells
Description: as §1, with “cabinet. Virus was re-suspended and diluted into tissue culture medium such that the amount of virus added to each well in a volume of 50 μL was the amount determined to yield 85 to 95% cell killing at 6 days post-infection.” for “cabinet.”
as §2, §3

A17K103N/Y181C = assay: Anti-HIV cytoprotection assay, drug resistant A17; assay type: cell-based; details: HIV-1 strain A17K103N/Y181C, CEM-SS cells
Description: as §1, §2, §3

CEM-SS cells [2] = assay: Toxicity XTT in CEM-SS cells (drug resistant strain assay); assay type: cell-based; details: read-out: TC50 (the source's name)
Description: as §1, with “cabinet. Virus was re-suspended and diluted into tissue culture medium such that the amount of virus added to each well in a volume of 50 μL was the amount determined to yield 85 to 95% cell killing at 6 days post-infection.” for “cabinet.”
as §2, §3

Caco-2 monolayers = assay: in vitro; assay type: in vitro ADME; details: for Recovery (%) A→B / Recovery (%) B→A / Average Papp, A→B / Average Papp, B→A: 2 hours; for Average Papp, A→B / Average Papp, B→A: pH 7.4
Outline: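 Permeability across Caco-2 monolayers in 12-well Transwell inserts (1.13 cm² area), run in duplicate. Calculation uses receiver and donor volumes, nominal dosing concentration, final receiver and donor concentrations, and the mean of nominal and measured 120 min donor concentrations.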

[3] = Toxicity XTT in CEM-SS cells (drug resistant strain assay); assay type: cell-based; details: human, CEM-SS cells, read-out: TC50 (the source's name)
Description: as §1, with “cabinet. Virus was re-suspended and diluted into tissue culture medium such that the amount of virus added to each well in a volume of 50 μL was the amount determined to yield 85 to 95% cell killing at 6 days post-infection.” for “cabinet.”
as §2, §3

[4] = run with HIV-1 strain A17K103N/Y181C
[5] = run with HIV-1 strain NL4-3L100I
[6] = run with HIV-1 strain NL4-3P236L
[7] = run with HIV-1 strain NL4-3Y181C
[8] = Human immunodeficiency virus 1, NL43, CEM-SS
[9] = Human immunodeficiency virus 1, CEM-SS

5-O-mPEG9-Delavirdine [mPEG9-O-Delavirdine]
CC50 (CEM-SS cells [1]): 40700 nM | TI (NL4-3): >5.6 | EC50 (NL4-3; HIV-1 strain NL4-3, CEM-SS cells, read-out: EC50): 890 nM | TI (NL4-3L100I): >5.3 | EC50 (NL4-3L100I; read-out: EC50): 940 nM | EC50 (NL4-3Y181C; read-out: EC50): > 5000 nM | EC50 (A17K103N/Y181C; read-out: EC50): > 5000 nM | CC50 (CEM-SS cells [2]; [4]): > 5000 nM | CC50 (CEM-SS cells [2]; run with HIV-1 strain NL4-3): > 5000 nM | CC50 (CEM-SS cells [2]; [5]): > 5000 nM | CC50 (CEM-SS cells [2]; [6]): > 5000 nM | CC50 (CEM-SS cells [2]; [7]): > 5000 nM | Efflux Ratio (B→A/A→B) (Caco-2 monolayers; Test 1): 12 | Recovery (%) A→B (Caco-2 monolayers; Test 1, 10 μM): 66% | Recovery (%) B→A (Caco-2 monolayers; Test 1, 10 μM): 72% | Average Papp, A→B (Caco-2 monolayers; Test 1, 10 μM): 2.22 ×10⁻⁶ cm/s | Average Papp, B→A (Caco-2 monolayers; Test 1, 10 μM): 27.7 ×10⁻⁶ cm/s | Efflux Ratio (B→A/A→B) (Caco-2 monolayers; Test 2): 7.1 | Recovery (%) A→B (Caco-2 monolayers; Test 2, 10 μM): 93% | Recovery (%) B→A (Caco-2 monolayers; Test 2, 10 μM): 94% | Average Papp, A→B (Caco-2 monolayers; Test 2, 10 μM): 5.27 ×10⁻⁶ cm/s | Average Papp, B→A (Caco-2 monolayers; Test 2, 10 μM): 37.3 ×10⁻⁶ cm/s

COCCNc1ccc2[nH]c(C(=O)N3CCN(c4ncccc4NC(C)C)CC3)cc2c1 [5-mPEG1-NH-Delavirdine, 5-mPEG-NH-Delavirdine]
TI (NL4-3): >50.0 | EC50 (NL4-3; [8]): 20 nM | TI (NL4-3L100I): >1.8 | EC50 (NL4-3L100I; [9]): 560 nM | TI (NL4-3Y181C): >1.2 | EC50 (NL4-3Y181C; [9]): 820 nM | EC50 (A17K103N/Y181C; [9]): > 1000 nM | CC50 [3, 4]: > 1000 nM | CC50 ([3]; run with HIV-1 strain NL4-3): > 1000 nM | CC50 [3, 5]: > 1000 nM | CC50 [3, 6]: > 1000 nM | CC50 [3, 7]: > 1000 nM

COCCOCCNc1ccc2[nH]c(C(=O)N3CCN(c4ncccc4NC(C)C)CC3)cc2c1 [5-mPEG2-NH-Delavirdine]
TI (NL4-3): >12.5 | EC50 (NL4-3; [8]): 80 nM | TI (NL4-3L100I): >1.4 | EC50 (NL4-3L100I; [9]): 710 nM | EC50 (NL4-3Y181C; [9]): > 1000 nM | EC50 (A17K103N/Y181C; [9]): > 1000 nM | CC50 [3, 4]: > 1000 nM | CC50 ([3]; run with HIV-1 strain NL4-3): > 1000 nM | CC50 [3, 5]: > 1000 nM | CC50 [3, 6]: > 1000 nM | CC50 [3, 7]: > 1000 nM

COCCOCCOCCOc1ccc2[nH]c(C(=O)N3CCN(c4ncccc4NC(C)C)CC3)cc2c1 [mPEG3-O-Delavirdine, 5-O-mPEG3-Delavirdine]
TI (NL4-3): >83.3 | EC50 (NL4-3; [8]): 60 nM | TI (NL4-3L100I): >167.0 | EC50 (NL4-3L100I; [9]): 30 nM | EC50 (NL4-3Y181C; [9]): > 5000 nM | EC50 (A17K103N/Y181C; [9]): > 5000 nM | CC50 [3, 4]: > 5000 nM | CC50 ([3]; run with HIV-1 strain NL4-3): > 5000 nM | CC50 [3, 5]: > 5000 nM | CC50 [3, 6]: > 5000 nM | CC50 [3, 7]: > 5000 nM

COCCOCCOCCOCCOc1ccc2[nH]c(C(=O)N3CCN(c4ncccc4NC(C)C)CC3)cc2c1 [mPEG4-O-Delavirdine, 5-O-mPEG4-Delavirdine]
TI (NL4-3): >5.8 | EC50 (NL4-3; [8]): 870 nM | TI (NL4-3L100I): >5.3 | EC50 (NL4-3L100I; [9]): 950 nM | EC50 (NL4-3Y181C; [9]): > 5000 nM | EC50 (A17K103N/Y181C; [9]): > 5000 nM | CC50 [3, 4]: > 5000 nM | CC50 ([3]; run with HIV-1 strain NL4-3): > 5000 nM | CC50 [3, 5]: > 5000 nM | CC50 [3, 6]: > 5000 nM | CC50 [3, 7]: > 5000 nM
